Measured values published in patent publication US12097329B2, “Apparatus to administer drugs to mechanically ventilated patients” (Chiesi Farmaceutici S.p.A., priority 2018, dated 2024).
Counter-ions that a name gives are not always drawn.

Experiments:
[1] = Aerosol performance by Next Generation Impactor (NGI), drug quantified by HPLC; assay type: physicochemical; conditions: BDP + FF 100 + 6 μg/10 mg DPI 37° C. 75% RH T-vol 500; connected to ventilation system through the connector
Protocol: A powder formulation was prepared according to the teaching of Examples 2 and 3 of WO 2013/110632 and loaded in the multi-dose dry powder inhaler described in WO 2016/000983. A ventilator system Monnal T75, available from Air Liquid Medical Systems […], Italy) was used. A Catheter mounth (ID 10 mm, length 17 cm) and an endotracheal catheter (ID 8 mm, length 8.5 cm) were also utilized. Other equipments were standard. The following conditions were set-up: tidal volume: 500 ml; PEEP 5 cmH2O; Flow rate: about 41 l/min; breath frequency: 15 bpm. All tests were performed at room temperature and lung temperature (about 37° C.) with in line humidification (about 75% relative humidity system). The inhaler was connected to the ventilation system through the connector of the invention. The evaluation of the aerosol performance was carried out using the Next Generation Impactor (NGI) according to the conditions reported in the European Pharmacopeia 8.5th Ed 2015, par 2.9.18, pages 309-320. After aerosolization of three doses from the inhaler device, the NGI apparatus was disassembled and the amounts of drug deposited in the stages were recovered by washing with a solvent mixture and then quantified by High-Performance Liquid Chromatography (HPLC).

[2] = as above; assay type: physicochemical; conditions: BDP + FF 100 + 6 μg/10 mg DPI - Release

Structure (SMILES)	DD (delivered dose) [1]	DD (delivered dose) [2]	EFPF (extrafine particle fraction) [1]	EFPM (extrafine FPM) [1]	FPF (fine particle fraction) [1]	FPM (fine particle mass, particle size equal to or lower than 5.0 micron) [1]	EFPF (extrafine particle fraction) [2]	EFPM (extrafine FPM) [2]	FPF (fine particle fraction) [2]	FPM (fine particle mass, particle size equal to or lower than 5.0 micron) [2]
COc1ccc(CC(C)NCC(O)c2ccc(O)c(NC=O)c2)cc1 (stereo not drawn) [FF, formoterol fumarate dihydrate]	3.84 µg	4.64 µg								
CCC(=O)OCC(=O)[C@@]1(OC(=O)CC)[C@@H](C)C[C@H]2[C@@H]3CCC4=CC(=O)C=C[C@]4(C)[C@@]3(Cl)[C@@H](O)C[C@@]21C [BDP, beclometasone dipropionate]	66.52 µg	81.05 µg	34.76 % on DD	23.12 µg	61.92 % on DD	41.19 µg	29.43 % on DD	23.85 µg	64.14 % on DD	51.99 µg
